Tests used:
[1] = test system: Myzus persicae (Green Peach Aphid); experiment: Activity against Myzus persicae (green peach aphid): systemic activity; type: in vivo; conditions: 144 h, test rate 24 ppm, roots of pea seedlings in test solution, 6 days
Method: Example B4: Activity Against Myzus persicae (Green Peach Aphid): Systemic Activity
Roots of pea seedlings infested with an aphid population of mixed ages were placed directly into aqueous test solutions prepared from 10'000 DMSO stock solutions. The samples were assessed for mortality 6 days after placing seedlings into test solutions.

[2] = test system: Spodoptera littoralis (Egyptian Cotton Leaf Worm); experiment: Activity against Spodoptera littoralis (Egyptian cotton leaf worm), cotton leaf disc spray; type: in vivo; conditions: foliar, 72 h, application rate 200 ppm, cotton leaf discs, L1 larvae, 3 days after infestation
Method: Example B8: Activity Against Spodoptera littoralis (Egyptian Cotton Leaf Worm)
Cotton leaf discs were placed onto agar in 24-well microtiter plates and sprayed with aqueous test solutions prepared from 10'000 ppm DMSO stock solutions. After drying the leaf discs were infested with five L1 larvae. The samples were assessed for mortality, anti-feeding effect, and growth inhibition in comparison to untreated samples 3 days after infestation. Control of Spodoptera littoralis by a test sample is given when at least one of the categories mortality, anti-feedant effect, and growth inhibition is higher than the untreated sample.

[3] = test system: Plutella xylostella (Diamond Back Moth); experiment: Activity against Plutella xylostella (diamond back moth); type: in vivo; conditions: 120 h, application rate 200 ppm, artificial diet, L2 larvae, 5 days after infestation, read-out: effect in at least one of the two categories (mortality or growth inhibition)
Method: Example B5: Activity Against Plutella xylostella (Diamond Back Moth)
(§1) 24-well microtiter plates with artificial diet were treated with aqueous test solutions prepared from 10'000 ppm DMSO stock solutions by pipetting. After drying, the plates were infested with L2 larvae (10 to 15 per well). The samples were assessed for mortality and growth inhibition in comparison to untreated samples 5 days after infestation.

[4] = test system: Myzus persicae (Green Peach Aphid); experiment: Activity against Myzus persicae (green peach aphid): feeding/contact activity; type: in vivo; conditions: foliar, 144 h, application rate 200 ppm, sunflower leaf discs, aphid population of mixed ages, 6 days after infestation
Method: Example B3: Activity Against Myzus persicae (Green Peach Aphid): Feeding/Contact Activity
Sunflower leaf discs were placed onto agar in a 24-well microtiter plate and sprayed with aqueous test solutions prepared from 10'000 ppm DMSO stock solutions. After drying, the leaf discs were infested with an aphid population of mixed ages. The samples were assessed for mortality 6 days after infestation.

[5] = test system: Diabrotica balteata (Corn Root Worm); experiment: Activity against Diabrotica balteata (corn root worm); type: in vivo; conditions: 96 h, application rate 200 ppm, maize sprouts, L2 larvae, 4 days after infestation, read-out: effect in at least one of the two categories (mortality or growth inhibition)
Method: Example B2: Activity Against Diabrotica balteata (Corn Root Worm)
as §1, with “Maize sprouts placed onto an agar layer in 24-well” for “24-well”, “plates” for “plates with artificial diet”, “spraying.” for “pipetting.”, “(6” for “(10”, “10” for “15”, “4” for “5”

[6] = test system: Euschistus heros (Neotropical Brown Stink Bug); experiment: Activity against Euschistus heros (neotropical brown stink bug); type: in vivo; conditions: 120 h, application rate 200 ppm, soybean leaves, N2 nymphs, 5 days after infestation, read-out: effect in at least one of the two categories (mortality or growth inhibition)
Method: Example B9: Activity Against Euschistus heros (Neotropical Brown Stink Bug)
Soybean leaves on agar in 24-well microtiter plates were sprayed with aqueous test solutions prepared from 10'000 ppm DMSO stock solutions. After drying the leaves were infested with N2 nymphs. The samples were assessed for mortality and growth inhibition in comparison to untreated samples 5 days after infestation.

[7] = test system: Bemisia tabaci (Cotton White Fly); experiment: Activity against Bemisia tabaci (cotton white fly): feeding/contact activity; type: in vivo; conditions: foliar, 144 h, application rate 200 ppm, cotton leaf discs, adult white flies, 6 days after incubation
Method: Example B1: Activity Against Bemisia tabaci (Cotton White Fly): Feeding/Contact Activity
Cotton leaf discs were placed on agar in 24-well microtiter plates and sprayed with aqueous test solutions prepared from 10'000 ppm DMSO stock solutions. After drying the leaf discs were infested with adult white flies. The samples were checked for mortality 6 days after incubation.

Compound	mortality at 24 ppm [1] [%]	percent control (mortality, anti-feedant effect or growth inhibition) at 200 ppm [2] [%]	percent control (mortality or growth inhibition) at 200 ppm [3] [%]	mortality at 200 ppm [4] [%]	percent effect (mortality or growth inhibition) at 200 ppm [5] [%]	effect (mortality or growth inhibition) at 200 ppm [6] [%]	mortality at 200 ppm [7] [%]	melting point [°C]
CCS(=O)(=O)c1cc2ccccc2nc1-c1nnc(-c2cc(C(F)(F)F)ccn2)n1C [Compound A3, 3-ethylsulfonyl-2-[4-methyl-5-[4-(trifluoromethyl)-2-pyridyl]-1,2,4-triazol-3-yl]quinoline]	≥ 80	≥ 80	≥ 80	≥ 80	≥ 80	–	–	–
CCS(=O)(=O)c1cc2ccccc2nc1-c1nnc(-c2cc(C(F)(F)F)ncn2)n1C [Compound A4, 3-ethylsulfonyl-2-[4-methyl-5-[6-(trifluoromethyl)pyrimidin-4-yl]-1,2,4-triazol-3-yl]quinoline]	–	–	≥ 80	≥ 80	≥ 80	–	–	–
CCS(=O)(=O)c1cc2c(cc1-c1nnc(-c3ccc(C(F)(F)F)nc3)n1C)nc(C(F)(F)F)n2C [Compound A5, 6-ethylsulfonyl-1-methyl-5-[4-methyl-5-[6-(trifluoromethyl)-3-pyridyl]-1,2,4-triazol-3-yl]-2-(trifluoromethyl)benzimidazole]	≥ 80	≥ 80	–	≥ 80	–	≥ 80	–	–
CCS(=O)(=O)c1cc2nc(C(F)(F)F)sc2cc1-c1nnc(-c2cc(C(F)(F)F)ccn2)n1C [Compound A6, 5-ethylsulfonyl-6-[4-methyl-5-[4-(trifluoromethyl)-2-pyridyl]-1,2,4-triazol-3-yl]-2-(trifluoromethyl)-1,3-benzothiazole]	–	≥ 80	≥ 80	–	≥ 80	–	≥ 80	–
CCSc1cc2sc(C(F)(F)F)nc2cc1-c1nnc(-c2cc(C(F)(F)F)ccn2)n1C [Compound A7, 6-ethylsulfanyl-5-[4-methyl-5-[4-(trifluoromethyl)-2-pyridyl]-1,2,4-triazol-3-yl]-2-(trifluoromethyl)-1,3-benzothiazole]	–	≥ 80	–	–	≥ 80	–	–	–
CCS(=O)(=O)c1cc2c(nnn2C)nc1-c1nnc(-c2cc(C(F)(F)F)ccn2)n1C [Compound A9, 6-ethylsulfonyl-1-methyl-5-[4-methyl-5-[4-(trifluoromethyl)-2-pyridyl]-1,2,4-triazol-3-yl]triazolo[4,5-b]pyridine]	–	≥ 80	≥ 80	≥ 80	≥ 80	≥ 80	≥ 80	–
CCS(=O)(=O)c1cc2nnn(C)c2nc1-c1nnc(-c2cc(C(F)(F)F)ccn2)n1C [Compound A10, 6-ethylsulfonyl-3-methyl-5-[4-methyl-5-[4-(trifluoromethyl)-2-pyridyl]-1,2,4-triazol-3-yl]triazolo[4,5-b]pyridine]	≥ 80	≥ 80	≥ 80	≥ 80	≥ 80	–	≥ 80	–
CCS(=O)(=O)c1cc2c(nnn2COC)nc1-c1nnc(-c2cc(C(F)(F)F)ccn2)n1C [Compound A11, 6-ethylsulfonyl-1-(methoxymethyl)-5-[4-methyl-5-[4-(trifluoromethyl)-2-pyridyl]-1,2,4-triazol-3-yl]triazolo[4,5-b]pyridine]	–	–	–	–	–	–	–	176 to 178
CCS(=O)(=O)c1cc2[nH]nnc2nc1-c1nnc(-c2cc(C(F)(F)F)ccn2)n1C [Compound A12, 6-ethylsulfonyl-5-[4-methyl-5-[4-(trifluoromethyl)-2-pyridyl]-1,2,4-triazol-3-yl]-1H-triazolo[4,5-b]pyridine]	–	–	–	–	–	–	–	303 to 305
CCn1nnc2nc(-c3nnc(-c4cc(C(F)(F)F)ccn4)n3C)c(S(=O)(=O)CC)cc21 [Compound A13, 1-ethyl-6-ethylsulfonyl-5-[4-methyl-5-[4-(trifluoromethyl)-2-pyridyl]-1,2,4-triazol-3-yl]triazolo[4,5-b]pyridine]	≥ 80	–	≥ 80	≥ 80	–	≥ 80	–	–
CCS(=O)(=O)c1cc2c(nnn2CCF)nc1-c1nnc(-c2cc(C(F)(F)F)ccn2)n1C [Compound A14, 6-ethylsulfonyl-1-(2-fluoroethyl)-5-[4-methyl-5-[4-(trifluoromethyl)-2-pyridyl]-1,2,4-triazol-3-yl]triazolo[4,5-b]pyridine]	≥ 80	–	≥ 80	≥ 80	–	≥ 80	–	–
CCS(=O)(=O)c1cc2nnn(CCF)c2nc1-c1nnc(-c2cc(C(F)(F)F)ccn2)n1C [Compound A15, 6-ethylsulfonyl-3-(2-fluoroethyl)-5-[4-methyl-5-[4-(trifluoromethyl)-2-pyridyl]-1,2,4-triazol-3-yl]triazolo[4,5-b]pyridine]	≥ 80	–	–	–	–	–	–	–
CCS(=O)(=O)c1cc2nnn(COC)c2nc1-c1nnc(-c2cc(C(F)(F)F)ccn2)n1C [Compound A16, 6-ethylsulfonyl-3-(methoxymethyl)-5-[4-methyl-5-[4-(trifluoromethyl)-2-pyridyl]-1,2,4-triazol-3-yl]triazolo[4,5-b]pyridine]	–	–	–	–	–	–	–	198 to 200
CCS(=O)(=O)c1cc2nn(COC)nc2nc1-c1nnc(-c2cc(C(F)(F)F)ccn2)n1C [Compound A17, 6-ethylsulfonyl-2-(methoxymethyl)-5-[4-methyl-5-[4-(trifluoromethyl)-2-pyridyl]-1,2,4-triazol-3-yl]triazolo[4,5-b]pyridine]	≥ 80	–	–	–	–	–	–	–
CCS(=O)(=O)c1cc2nn(C)nc2nc1-c1nnc(-c2cc(C(F)(F)F)ccn2)n1C [Compound A18, 6-ethylsulfonyl-2-methyl-5-[4-methyl-5-[4-(trifluoromethyl)-2-pyridyl]-1,2,4-triazol-3-yl]triazolo[4,5-b]pyridine]	≥ 80	–	–	≥ 80	–	≥ 80	–	–
CCS(=O)(=O)c1cc2c(nc1-c1nnc(-c3cc(C(F)(F)F)ccn3)n1C)CC(C)(C)O2 [Compound A19, 6-ethylsulfonyl-2,2-dimethyl-5-[4-methyl-5-[4-(trifluoromethyl)-2-pyridyl]-1,2,4-triazol-3-yl]-3H-furo[3,2-b]pyridine]	–	≥ 80	≥ 80	–	–	–	–	–
CCS(=O)(=O)c1cc2c(nc1-c1nnc(-c3cc(C(F)(F)F)ncn3)n1C)CC(C)(C)O2 [Compound A20, 6-ethylsulfonyl-2,2-dimethyl-5-[4-methyl-5-[6-(trifluoromethyl)pyrimidin-4-yl]-1,2,4-triazol-3-yl]-3H-furo[3,2-b]pyridine]	≥ 80	≥ 80	–	–	≥ 80	≥ 80	–	–

— patent publication US10421740B2, “Pesticidally active heterocyclic derivatives with sulphur containing substituents” (SYNGENTA PARTICIPATIONS AG, priority 2016, dated 2019)
